Patent US12570627B2, “Pharmaceutical composition in which production of impurities is suppressed” (Shionogi & Co., Ltd., priority 2020, dated 2026)

Legend:
Format in all cases: physicochemical
[1] = 90% particle size distribution of bead mill wet-pulverized product, Mastersizer 2000 (Test Example 5); conditions: Mastersizer 2000, SDS aqueous dispersion
Method: The obtained slurry was wet-pulverized with a bead mill (DYNO-MILL nanodisperser research lab type, Willy A. Bachofen AG) and then filtered to obtain an anhydrate crystal (90% particle size distribution: 2.791 μm) of the compound represented by Formula (I). The 90% particle size distribution was measured by the method described in Test Example 5.
A 90% particle size distribution was measured according to the following method and conditions. • Measuring instrument: particle size distribution measuring apparatus (Mastersizer 2000, Malvern Panalytical Ltd) • Dispersion solvent: 0.1 g of sodium dodecyl sulfate (SDS) was dissolved in 1 L of water • Rotation speed: 2500 rpm • Ultrasound: 50% • Slurry concentration: adjusted between 10 to 20%

[2] = Stability testing, study of stabilizer / blending property test (Test Example 9)
Method: A blending property test was performed on the compound represented by Formula (I) or the like and an additive, and the amount of the compound represented by Formula (III) in the product stored over time was evaluated. The sample and additive used in Reference Example 4 were weighed and mixed uniformly with a mortar and a pestle. An appropriate amount of purified water was added to the mixture, and wet kneading was performed with a pestle. The resulting granulated product was sieved with a 20-mesh wire mesh, and dried at an aeration temperature of 60° C. for 30 minutes in an aeration dryer (TH-80, SATAKE CHEMICAL EQUIPMENT MFG., LTD.). Thereafter, the resulting product was further sieved with a 20-mesh wire mesh to obtain samples of Examples 10 to 14.
The samples of Examples 10 to 14 were subjected to a stability testing under a condition of 60° C. glass bottle closed (referred to as 60° C. closed in Table 17) and 40° C. glass bottle closed (referred to as 40° C. closed in Table 17) to evaluate the content of the compound represented by Formula (III).
The content of the compound represented by Formula (II) was confirmed in the same manner as in Test Example 7.

[3] = Stability testing of wet-kneaded vs untreated dry-pulverized product (Test Example 7)
Method: A standard sample of 5 ng/mL (corresponding to 5 ppm with respect to the sample solution) of the compound represented by Formula (ITI) was prepared by the following method. Step 1: About 20 mg of the compound represented by Formula (III) was weighed precisely, and a mixed solution of acetonitrile and water (4:1) was added to dissolve the compound to make exactly 100 mL. Step 2: One milliliter of the solution of Step 1 was accurately taken, and a mixed solution of acetonitrile and water (4:1) was added to make exactly 100 mL. Step 3: One milliliter of the solution of Step 2 was accurately taken, and a mixed solution of acetonitrile and water (4:1) was added to make exactly 100 mL. Step 4: Five milliliters of the solution of […] was accurately taken, and a mixed solution of acetonitrile and water (4:1) was added to make exactly 20 mL, thereby obtaining a standard solution. Step 1: A sample in an amount corresponding to 50 mg of the compound represented by Formula (I) or the like was added to a 50 mL volumetric flask. Step 2: To Step 1 was added 10 mL of water, and the mixture was irradiated with ultrasonic waves for 10 minutes to disintegrate the sample completely. The ultrasonic irradiation time was extended as necessary. Step 3: To Step 2 was added 25 mL of acetonitrile, and the mixture was irradiated with ultrasonic waves for 30 minutes. Step 4: After cooling, acetonitrile was added to make exactly 50 mL, a part of the liquid was centrifuged at 13000 rpm for 10 minutes, and the supernatant was used as a sample solution. An amount of the compound represented by Formula (III) was measured with a liquid chromatograph according to the following method and conditions. • Measuring instrument: LC/MS/MS (PM No. AES676) manufactured by Agilent Technologies, Inc. • Column: L-column 24.6×150 mm, 3 μm • Column temperature: constant temperature at near 35° C. • Mobile phase A: 10 mM ammonium acetate • Mobile phase B: acetonitrile for liquid chromatography • Feed of mobile phase: The mixing ratio of mobile phase A and mobile phase B was changed as shown in Table 14 to control concentration gradient. • Post runtime: 5 minutes • Flow rate: 0.5 mL/min (retention time of S202AA: about 9 minutes) • Injection amount: 5 μL • Sample cooler temperature: constant temperature at near 10° C. • Needle washing solution: acetonitrile for liquid chromatography • Ionization method: ESI • Scan type: MEM • Polarity: positive • Precursor ion: m/z=187.2 • Product ion: m/z=64.9 • Fragmentor: 120 • Collision energy: 33 • Capillary: 4000 V • Gas temperature: 350° C. • Gas flow rate: 12 L/min • Nebulizer: 40 psi • MS uptake time: 0 to 12 minutes (Calculation Formula) Content (ppm) of compound represented by Formula(III)=MS×P/100×(100−WS)/100×AT/AS×1/50×1/80000×1000000 (Mathematical formula 6) • MS: Weighing amount (mg) of compound represented by Formula (III) • P: Purity (%) of compound represented by Formula (III) • WS: Moisture (%) of compound represented by Formula (JII) • AS: Peak area of compound represented by Formula (III) obtained from standard solution • AT: Peak area of compound represented by Formula (III) obtained from sample solution (Results)

[4] = 40° C. glass bottle closed, 1 month
[5] = 40° C. glass bottle closed, 2 weeks
[6] = 40° C. glass bottle closed, 3 months
[7] = 60° C. glass bottle closed, 2 weeks

90% particle size distribution [1]	Amount of compound represented by Formula (III), 40° C. closed 1M [2, 4]	Amount of compound represented by Formula (III), 40° C. closed 2W [2, 5]	Amount of compound represented by Formula (III), 40° C. closed 3M [2, 6]	Amount of compound represented by Formula (III), 60° C. closed 2W [2, 7]	Amount of compound represented by Formula (III), Initial ([2]; start of test)	Content of compound represented by Formula (III), 40° C. glass bottle closed 1M [3, 4]	Content of compound represented by Formula (III), 40° C. glass bottle closed 2W [3, 5]	Content of compound represented by Formula (III), 40° C. glass bottle closed 3M [3, 6]	Content of compound represented by Formula (III), 40° C./75% RH glass bottle opened 1M ([3]; 40° C./75% RH glass bottle opened, 1 month)	Content of compound represented by Formula (III), 40° C./75% RH glass bottle opened 2W ([3]; 40° C./75% RH glass bottle opened, 2 weeks)	Content of compound represented by Formula (III), 40° C./75% RH glass bottle opened 3M ([3]; 40° C./75% RH glass bottle opened, 3 months)	Content of compound represented by Formula (III), 60° C. glass bottle closed 2W [3, 7]	Content of compound represented by Formula (III), Initial ([3]; start of test)	SMILES
2.791 μm														C[C@@H](Cn1c(=O)[nH]/c(=N\c2ccc(Oc3ccccn3)cc2)n(Cc2ccc(Cl)cc2)c1=O)C(=O)O [Example 7]
	17.2 ppm	10.7 ppm	23.9 ppm	10.9 ppm	3.0 ppm	17.2 ppm	10.7 ppm	23.9 ppm	13.1 ppm	9.4 ppm	19.7 ppm	10.9 ppm	3.0 ppm	C[C@@H](Cn1c(=O)[nH]/c(=N\c2ccc(Oc3ccccn3)cc2)n(Cc2ccc(Cl)cc2)c1=O)C(=O)O [Reference Example 4]
